# From patent US20250325536A1, “THERAPEUTIC USES OF GLP1R AGONISTS” (vTv Therapeutics LLC, priority 2018, published 2025)
# What was measured:
# [1] = test system: subjects (humans) with type 2 diabetes; assay: Phase 2 clinical study of API-1, 12 weeks of treatment, on stable metformin; format: in vivo, human; details: for placebo-subtracted decrease from baseline in HbA1c (%): p<0.001
# Procedure: A Phase 2 clinical study was designed as a randomized, double-blind, placebo- controlled, parallel-group multi-center study evaluating the efficacy and safety following 12 weeks of treatment with API-1 in subjects (humans) with type 2 diabetes who were being treated with a stable dose of metformin. Subjects were randomly assigned to one of three treatment groups, API-1 150 mg BID, API-1 150 mg QPM, or placebo with approximately n=52/group. A total of approximately 156 patients were to be randomized into this study and 174 were ultimately randomized. Subjects were enrolled and randomized according to a fixed randomization scheme blocked by study investigative site. Severity of diabetes was determined by HbA1c measures (7.5% to 10%) at screening, confirmed at Baseline, and HbA1c was used as a stratification variable in the randomization scheme: HbA1c less than 8% and 8% or more. Randomization was to be a balanced allocation (1:1:1) among the three treatment groups. Dropouts were not to be replaced. Statistical analyses for topline results included placebo-subtracted change from baseline (LSM-CFB) for HbA1c (primary endpoint) and body weight (secondary endpoint) as well as a post hoc concentration/effect analysis to evaluate the effect of exposure on efficacy.
# [2] = test system: subjects (humans) with T2DM; assay: Phase 2 dose-ranging study of API-2, 12 weeks of treatment; format: in vivo, human; details: Target population (Baseline 8-11%)
# Procedure: A Phase 2 study was designed as a randomized, double-blind, placebo controlled, dose-ranging, parallel group study evaluating the efficacy and safety following 12 weeks of treatment with API-2 in subjects (humans) with T2DM. The study was conducted in 2 parts: Part A and Part B. Part A and Part B were identical except for the dose levels administered. In Part A, subjects received one of two treatments administered orally for 12 weeks: API-2 400 mg QD (n=51) or matching placebo (n=26). In Part B, subjects received one of three treatments administered orally for 12 weeks: API-2 200 mg QD (n=28), API-2 800 mg QD (n=56), or matching placebo (n=26).
# [3] = 150 mg once daily (QPM) arm, Week 12, completers, 2.2 mg/kg to 1.0 mg/kg
# [4] = 150 mg twice daily (BID) arm, Week 12, completers, 2.2 mg/kg to 4.8 mg/kg
structure (smiles),measurement,setting,value
"CC[C@@H](c1ccccc1)N1Cc2cc3c(cc2C[C@H]1C(=O)N[C@@H](Cc1ccc(-c2ccnc(C)c2C)cc1)C(=O)O)OC[C@H](c1ccc(OCc2ccc(Cl)c(Cl)c2)cc1)O3.Cl.Cl [API-1, (S)-2-{[(3S,8S)-3-[4-(3,4-dichloro-benzyloxy)-phenyl]-7-((S)-1-phenyl-propyl)-2,3,6,7,8,9-hexahydro-[1,4]dioxino[2,3-g]isoquinoline-8-carbonyl]-amino}-3-[4-(2,3-dimethyl-pyridin-4-yl)-phenyl]-propionic acid hydrochloride (1:2)]",placebo-subtracted decrease from baseline in HbA1c (%),"[1]; 150 mg once daily (QPM) arm, 12 weeks",0.9±0.2%
same,dose (mg/kg) response of change from baseline in FPG (FIG. 3),[1]; [3],increased as the dose was reduced
same,dose (mg/kg) response of change from baseline in HbA1c (FIG. 1),[1]; [3],increased as the dose was reduced
same,weight loss (average),"[1]; 150 mg once daily arm, 12 weeks, p=0.08",0.9 kg
same,placebo-subtracted decrease from baseline in HbA1c (%),"[1]; 150 mg twice daily (BID) arm, 12 weeks",0.7±0.2%
same,dose (mg/kg) response of change from baseline in FPG (FIG. 4),[1]; [4],almost unchanged
same,dose (mg/kg) response of change from baseline in HbA1c (FIG. 2),[1]; [4],almost unchanged
same,weight loss (average),"[1]; 150 mg twice daily arm, 12 weeks",0.6 kg
same,Mean Change from Baseline HbA1c (%),"[1]; group 1-1.35 mg/kg (<1.35), Week 4",−0.57%
same,Mean Change from Baseline HbA1c (%),"[1]; group 1-1.35 mg/kg (<1.35), Week 8",−1.26%
same,Mean Change from Baseline HbA1c (%),"[1]; group 1-1.35 mg/kg (<1.35), Week 12",−1.71%
same,Mean Change from Baseline HbA1c (%),"[1]; group 1.35-1.64 mg/kg, Week 4",−0.35%
same,Mean Change from Baseline HbA1c (%),"[1]; group 1.35-1.64 mg/kg, Week 8",−0.85%
same,Mean Change from Baseline HbA1c (%),"[1]; group 1.35-1.64 mg/kg, Week 12",−0.90%
same,Mean Change from Baseline HbA1c (%),"[1]; group 1.65-1.75 mg/kg, Week 4",−0.21%
same,Mean Change from Baseline HbA1c (%),"[1]; group 1.65-1.75 mg/kg, Week 8",−0.51%
same,Mean Change from Baseline HbA1c (%),"[1]; group 1.65-1.75 mg/kg, Week 12",−0.75%
same,Mean Change from Baseline HbA1c (%),"[1]; group 1.76-2.2 mg/kg (>1.75), Week 4",−0.31%
same,Mean Change from Baseline HbA1c (%),"[1]; group 1.76-2.2 mg/kg (>1.75), Week 8",−0.43%
same,Mean Change from Baseline HbA1c (%),"[1]; group 1.76-2.2 mg/kg (>1.75), Week 12",−0.55%
same,placebo-subtracted decrease from baseline in fasting plasma glucose,"[1]; once daily arm, 12 weeks",about 16 mg/dL
same,reduction from baseline in HbA1c,"[1]; patients dosed with lower than 1.35 mg/kg, 12 weeks, p<0.01",1.7%
same,reduction from baseline in body weight,"[1]; patients dosed with lower than 1.35 mg/kg, 12 weeks, p<0.05",3.7 kg
same,placebo-subtracted decrease from baseline in fasting plasma glucose,"[1]; twice daily arm, 12 weeks",~17 mg/dL
"CC[C@@H](c1ccccc1)N1Cc2cc3c(cc2C[C@H]1C(=O)N[C@@H](Cc1ccc(-c2ccc(C#N)cc2)cc1)C(=O)O)N(C)C(=O)[C@@H](c1ccc(OCc2ccc(Cl)c(Cl)c2)cc1)O3 [API-2, (S)-3-(4′-cyano-biphenyl-4-yl)-2-{[(3R,7S)-3-[4-(3,4-dichlorobenzyloxy)-phenyl]-1-methyl-2-oxo-6-((S)-1-phenyl-propyl)-2,3,5,6,7,8-hexahydro-1H-4-oxa-1,6-diaza-anthracene-7-carbonyl]-amino}-propionic acid]",Mean Change from Baseline in HbA1c (%),"[2]; group 1.4-2.7 mg/kg (<2.7), Week 4",−0.37%
same,Mean Change from Baseline in HbA1c (%),"[2]; group 1.4-2.7 mg/kg (<2.7), Week 8",−0.69%
same,Mean Change from Baseline in HbA1c (%),"[2]; group 1.4-2.7 mg/kg (<2.7), Week 12",−0.79%
same,Mean Change from Baseline in HbA1c (%),"[2]; group 2.8-4.0 mg/kg, Week 4",−0.47%
same,Mean Change from Baseline in HbA1c (%),"[2]; group 2.8-4.0 mg/kg, Week 8",−0.86%
same,Mean Change from Baseline in HbA1c (%),"[2]; group 2.8-4.0 mg/kg, Week 12",−1.09%
same,Mean Change from Baseline in HbA1c (%),"[2]; group 4.1-5.0 mg/kg, Week 4",−0.36%
same,Mean Change from Baseline in HbA1c (%),"[2]; group 4.1-5.0 mg/kg, Week 8",−0.78%
same,Mean Change from Baseline in HbA1c (%),"[2]; group 4.1-5.0 mg/kg, Week 12",−0.85%
same,Mean Change from Baseline in HbA1c (%),"[2]; group 5.1-12.4 mg/kg (>5.0), Week 4",−0.26%
same,Mean Change from Baseline in HbA1c (%),"[2]; group 5.1-12.4 mg/kg (>5.0), Week 8",−0.34%
same,Mean Change from Baseline in HbA1c (%),"[2]; group 5.1-12.4 mg/kg (>5.0), Week 12",−0.34%
